Broadly, the IC50 is the concentration that inhibits the measured activity by half.

This passage reports IC50 results from US20240409585A1, “MACROCYCLIC IMMUNOMODULATORS” (priority 2021, published 2024).

Molecules are shown by their SMILES. Numbered stars: 1 amine (or outer) side, 2 acyl side, 3 side chain; on linkers, the order of the positions; unused ones are H or OH. Bridge positions count the residues as written; N and C are the ends. Square brackets hold non-standard residues; d marks the D form. Peptide text beside a SMILES is read from it. * marks the point of attachment. X25 = N#CCCc1ccc(-c2ccc(C[C@H](N[*:1])C(=O)[*:2])cc2)cc1; Phe(4-COOH) = N[C@@H](Cc1ccc(C(=O)O)cc1)C(=O)O; Bip = N[C@@H](Cc1ccc(-c2ccccc2)cc1)C(=O)O; Phe(3-Me) = Cc1cccc(C[C@H](N)C(=O)O)c1; Val(3-OH) = CC(C)(O)[C@H](N)C(=O)O; 4Pal = N[C@@H](Cc1ccncc1)C(=O)O; 2Thi = N[C@@H](Cc1cccs1)C(=O)O; Cha = N[C@@H](CC1CCCCC1)C(=O)O; dNva = CCC[C@@H](N)C(=O)O; Carboxymethyl = O=C(O)C*; NMeA = CN[C@@H](C)C(=O)O; Nle = CCCC[C@H](N)C(=O)O; Dab = NCC[C@H](N)C(=O)O

T1 sequence (Q15116 25-288): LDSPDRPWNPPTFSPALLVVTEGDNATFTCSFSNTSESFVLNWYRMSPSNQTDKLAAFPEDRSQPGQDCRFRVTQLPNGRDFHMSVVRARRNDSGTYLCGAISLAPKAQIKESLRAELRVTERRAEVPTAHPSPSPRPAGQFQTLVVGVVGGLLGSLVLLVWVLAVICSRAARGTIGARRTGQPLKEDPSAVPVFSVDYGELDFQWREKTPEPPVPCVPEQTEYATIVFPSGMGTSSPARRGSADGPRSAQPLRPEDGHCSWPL

The test addresses T1, PE-labeled human PD-L1-Ig binding to Jurkat cell line over-expressing human PD-1 (Jurkat-PD-1) (Homo sapiens, UniProt Q15116).
T1 construct: expressed in transfected cells; host or cells: Jurkat
Kind of test: Jurkat-PD-1 Cell Binding High-Content Screening Assay (CBA): Method 1. The conditions noted are these: Jurkat-hPD-1 cells, PE-labeled PD-L1-Ig 20 nM final; read-out: Jurkat HPDL1 PD1 IC50 (uM) (Method 1).
Regarding `CC(C)C[C@@H]1NC(=O)[C@H](CC(N)=O)NC(=O)[C@@H](CC(C)C)NC(=O)[C@H](C)N(C)C(=O)[C@H](CCC(=O)O)NC(=O)[C@H](Cc2ccc(-c3ccccc3)cc2)NC(=O)[C@H](C(C)C)NC(=O)[C@H](Cc2c[nH]c3ccccc23)NC(=O)[C@H](CC(=O)O)NC(=O)[C@H](Cc2ccc(O)cc2)NC(=O)[C@H](Cc2ccncc2)NC(=O)CSC[C@@H](C(N)=O)NC(=O)[C@H]([C@@H](C)O)NC(=O)[C@H](C(C)C)NC1=O` [Compound 1631] ({CH2CO}-[4Pal]YDWV[Bip]E[NMeA][dL]NLVTC-NH2; thioether N-14), the IC50 was found to be 0.11 µM.

As for `CCCC[C@@H]1NC(=O)[C@H](CCCNC(=N)N)NC(=O)[C@@H](CC(C)C)NC(=O)[C@H](C)N(C)C(=O)[C@H]([C@@H](C)CC)NC(=O)[C@H](Cc2ccc(-c3ccccc3)cc2)NC(=O)[C@H](C(C)C)NC(=O)[C@H](Cc2c[nH]c3ccccc23)NC(=O)[C@H](CC(=O)O)NC(=O)[C@H](Cc2ccc(O)cc2)NC(=O)[C@H](Cc2ccccc2)NC(=O)CSC[C@@H](C(=O)N[C@@H](C)C(N)=O)NC(=O)[C@H]([C@@H](C)O)NC(=O)[C@H](C(C)C)NC1=O` [Compound 1499] ({CH2CO}-FYDWV[Bip]I[NMeA][dL]R[Nle]VTCA-NH2; thioether N-14), the IC50 was 0.14 µM.

For `CCC[C@H]1NC(=O)[C@H](C)N(C)C(=O)[C@H](C(C)C)NC(=O)[C@H](Cc2ccc(-c3ccccc3)cc2)NC(=O)[C@H](CC(C)C)NC(=O)[C@H](Cc2c[nH]c3ccccc23)NC(=O)[C@H](CC(=O)O)NC(=O)[C@H](Cc2ccc(O)cc2)NC(=O)[C@H](Cc2ccccc2)NC(=O)CSC[C@@H](C(=O)N[C@@H](C)C(N)=O)NC(=O)[C@H](CO)NC(=O)[C@H](C(C)C)NC(=O)[C@H](CC(C)C)NC(=O)[C@H](CC(N)=O)NC1=O` [Compound 1755] ({CH2CO}-FYDWL[Bip]V[NMeA][dNva]NLVSCA-NH2; thioether N-14), the IC50 worked out at 0.03 µM.

Consider `CC(C)C[C@@H]1NC(=O)[C@H](CCN)NC(=O)[C@@H](CC(C)C)NC(=O)[C@H](C)N(C)C(=O)[C@H](CCCNC(=N)N)NC(=O)[C@H](Cc2ccc(-c3ccc(CCC#N)cc3)cc2)NC(=O)[C@H](C(C)C)NC(=O)[C@H](Cc2c[nH]c3ccccc23)NC(=O)[C@H](CC(=O)O)NC(=O)[C@H](Cc2ccc(O)cc2)NC(=O)[C@H](CC(N)=O)NC(=O)CSC[C@@H](C(=O)N[C@@H](C)C(N)=O)NC(=O)[C@H]([C@@H](C)O)NC(=O)[C@H](C(C)C)NC1=O` [Compound 1213] ({CH2CO}-NYDWV[X25]R[NMeA][dL][Dab]LVTCA-NH2; thioether N-14), for which the IC50 turned out to be 0.25 µM.

As to `CCNC(=O)[C@H](CCN)NC(=O)[C@@H]1CSCC(=O)N[C@@H](CCN)C(=O)N[C@@H](Cc2ccc(C(=O)O)cc2)C(=O)N[C@@H](CC(=O)O)C(=O)N[C@@H](Cc2c[nH]c3ccccc23)C(=O)N[C@@H](CC(C)C)C(=O)N[C@@H](Cc2ccc(-c3ccccc3)cc2)C(=O)N[C@@H]([C@@H](C)CC)C(=O)N(C)[C@@H](C)C(=O)N[C@H](CC(C)C)C(=O)N[C@@H](CCN)C(=O)N[C@@H](CC2CCCCC2)C(=O)N[C@@H](C(C)(C)O)C(=O)N[C@@H](CO)C(=O)N1` [Compound 1850] ({CH2CO}-[Dab][Phe(4-COOH)]DWL[Bip]I[NMeA][dL][Dab][Cha][Val(3-OH)]SC[Dab]-NHEt; thioether N-14), the IC50 stood at 0.01 µM.

Turning to `CC(=O)NCC[C@H](NC(=O)[C@@H]1CSCC(=O)N[C@@H](Cc2cccs2)C(=O)N[C@@H](Cc2ccc(OCC(=O)O)cc2)C(=O)N[C@@H](CC(=O)O)C(=O)N[C@@H](Cc2cccc(C)c2)C(=O)N[C@@H](Cc2ccc(C(=O)O)cc2)C(=O)N[C@@H](Cc2ccc(-c3ccccc3)cc2)C(=O)N[C@@H](Cc2ccc(OCC(=O)O)cc2)C(=O)N(C)[C@@H](C)C(=O)N[C@H](CC(C)C)C(=O)N[C@@H](CCN)C(=O)N[C@@H](CC2CCCCC2)C(=O)N[C@@H](C(C)(C)O)C(=O)N[C@@H](Cc2cnc[nH]2)C(=O)N1)C(N)=O` [Compound 2163] ({CH2CO}-[2Thi]Y(Carboxymethyl)D[Phe(3-Me)][Phe(4-COOH)][Bip]Y(Carboxymethyl)[NMeA][dL][Dab][Cha][Val(3-OH)]HC[Dab](Ac)-NH2; thioether N-14), the IC50 turned out to be 0.01 µM.
